One block for each molecule: values may come before it.
What was measured:
[1] = test system: LPS-stimulated RAW264.7 cells; experiment: LPS-induced TNF-α release in RAW264.7 macrophages (ELISA); assay type: cell-based, mouse; details: for IC50: read-out: IC50, inhibition of LPS-induced TNF-α release
Method: The anti‐inflammatory effects of all (+)‐balasubramide derivatives were evaluated in Lipopolysaccharide (LPS, L2630, Sigma–Aldrich, USA)‐induced macrophage inflammation model. RAW264.7 cells were pretreated with various compounds or (+)3C‐20 at different concentrations for 3 h, and then stimulated with LPS (100 ng mL^−1) for 2 h for the detection of pro‐inflammatory factors expressions. Similarly, following 3 h co‐incubation with (+)3C‐20, mouse BMDMs were stimulated with LPS (100 ng mL^−1) for 3 h. TNF‐α protein in the culture medium supernatant was measured by a commercial ELISA kit (#1 217 202, DAKEWE, China) following the manufacture's protocols.

mice = experiment: Acute toxicity (LD50, sequential method), single intravenous injection; details: for Mortality: i.v.
Text: To test the safety of (+)3C‐20 in mice, as previously reported,^[ [31] ^] we estimated the acute toxicity of (+)3C‐20 in mice using a sequential method.

RAW264.7 cells = experiment: CCK-8 cell viability assay; assay type: cell-based, mouse; details: 10 μM, 24 h
Method: Cell viability was determined by CCK‐8 assay. RAW264.7 cells or mouse BMDMs cultured in a 96‐well plate were pretreated with various compounds at 10 µM or different concentrations of (+)3C‐20 for 24 h when cells reached 70% confluence and then were treated with DMEM containing 5 µL CCK‐8 reagent (A311, Vazyme, China) in a humidified atmosphere of 5% CO2 and 95% air for 1 h at 37 °C. The UV absorption values of the medium with CCK‐8 were measured at 450 nm in a ThermoFisher plate‐reader (VL0L0TD2, Waltham, USA).

IC50 ([1]; RAW264.7 cells): 83.1 µM
SMILES: O=C(O)CNC(=O)C1(Nc2ccccc2)CCN(Cc2cccc3ccccc23)CC1 [VBIT-12, reference compound]

SMILES: O=C(CC(CO)N1CCN(c2ccc(OC(F)(F)F)cc2)CC1)Nc1ccc(Cl)cc1 (stereo not shown) [VBIT-4]
IC50 ([1]; RAW264.7 cells): 19.8 µM | Mortality (mice; dosage 60.00 mg/kg): 0 | Mortality (mice; dosage 71.14 mg/kg): 14.286 | Mortality (mice; dosage 84.34 mg/kg): 83.333 | Mortality (mice; dosage 100.00 mg/kg): 100 | LD50 (mice; single intravenous injection): 75.828 mg/kg

SMILES: CN1CCc2c([nH]c3ccccc23)C(c2ccccc2)C(O)C1=O (single isomer, unassigned; (+)) [(+)3J]
effect on the release of TNF-α ([1]; LPS-induced RAW 264.7 macrophage inflammation model): a certain inhibitory effect | inhibition at 10 µM ([1]; Mus musculus, 10 μM + LPS (100 ng/mL), RAW264.7 cells, n = 3, read-out: Inhibition rate (%) of TNF-α release): 19.1 ± 1.83% | cell viability (RAW264.7 cells): 95.09 ± 1.19

Reference: paper PMC11672292, “Discovery of Balasubramide Derivative with Tissue‐Specific Anti‐Inflammatory Activity Against Acute Lung Injury by Targeting VDAC1” (Advanced Science, 2024)
